# Several values for one entry are separate records, joined by “and”; a condition that tells them apart may be missing. Equal entries are not always repeated.
# Experiments:
# Type in all cases: in vivo, rat
# heme oxygenase [1] = assay: heme oxygenase activity in liver, kidney and spleen of neonatal rats treated with Cr-protoporphyrin
# Experimental: (§1) The treated animals and the controls were assayed for heme oxygenase activity and bilirubin concentration. Since heme oxygenase is an essential component in the catabolism of heme, an increase in heme oxygenase activity is indicative of an increase in the rate of heme catabolism. Heme oxygenase was assyed as described by Maines and Kappas in J. Biol. Chem., 253, 2321-2326 (1978). Total bilirubin in serum was estimated by the method of Roth, Clin. Chem. Acta., 17, 487-492 (1967).
# (§2) Similar studies were conducted with neonatal rats treated subcutaneously with 2 and 10 micromoles per kilogram of Cr-protoporphyrin soon after birth. Various organs were analyzed for heme oxygenase activity and bilirubin concentration. The results were compared with controls each of which were treated subcutaneously with 0.1 ml of saline.
# The results for heme oxygenase activity in liver, kidney and spleen in nanamoles heme oxygenase per milligram microsomal protein per hour are shown below.
# serum bilirubin [2] = assay: serum bilirubin in neonatal rats treated with Cr-protoporphyrin
# Experimental: as §1, §2
# heme oxygenase [3] = assay: hepatic heme oxygenase activity in neonatal rats treated with Sn-protoporphyrin
# Experimental: (§3) To determine the efficacy of Sn-protoporphyrin for controlling the rate of heme metabolism, neonatal rats were injected subcutaneously at birth, and at 12, 24, 48 and 72 hours postnatally with 0.1 ml solutions of Sn-protoporphyrin. To prepare the solutions for parenteral injection, the material was taken up in a small volume of 0.2N sodium hydroxide, adjusted to pH 7.4 with one normal hydrochloric acid and made up to final volume with 0.9% sodium chloride. The compositions as prepared and used contained sufficient Sn-protoporphyrin to provide about 100 μmol/Kg body weight in each 0.1 ml injection. Control neonates received an equivalent volume of saline at each time point. Groups of neonates (6-30 animals per group) were sacrificed at selected time intervals.
# as §1
# serum bilirubin [4] = assay: total serum bilirubin in neonatal rats treated with Sn-protoporphyrin; conditions: about 100 μmol/Kg s.c. per injection
# Experimental: as §3, §1
# heme oxygenase [5] = assay: heme oxygenase activity (bilirubin production) in liver and kidney microsomes of adult rats treated with Sn-protoporphyrin; conditions: 50 μmol/Kg s.c.
# Experimental: Studies were carried out with adult rats treated with Sn-protoporphyrin to determine the effect on heme oxygenase activity and bilirubin production. Three rats weighing about 230 grams each were injected subcutaneously with 50 μmol/Kg of Sn-protoporphyrin in isotonic saline at pH 8. Three controls were similiary treated with isotonic saline. The rats were sacrificed sixteen hours after treatment. The microsomal protein of the separate livers and of the three combined kidneys was estimated and heme oxygenase activity determined according to the method of Maines and Kappas. This procedure measures the heme oxygenase activity by determining the amount of bilirubin produced. The concentration unit for bilirubin is nanamoles bilirubin formed per milligram protein per hour.
# [6] = neonatal rats, about 100 μmol/Kg s.c. per injection
structure (smiles),measurement,setting,value
C=CC1=C(C)c2cc3[n-]c(cc4[n-]c(cc5nc(cc1n2)C(C)=C5C=C)c(C)c4CCC(=O)[O-])c(CCC(=O)[O-])c3C.[Cr+3].[H+] [Cr-protoporphyrin],effect on heme oxygenase,"heme oxygenase [1]; 2 and 10 μmol/Kg s.c., liver, kidney, spleen",immediate decrease in heme oxygenase
same,heme oxygenase activity,"heme oxygenase [1]; kidney, 2 μmol/Kg s.c. soon after birth, day 2",0.36 nanamoles heme oxygenase per m
same,heme oxygenase activity,"heme oxygenase [1]; kidney, 2 μmol/Kg s.c. soon after birth, day 3",0.72 nanamoles heme oxygenase per m
same,heme oxygenase activity,"heme oxygenase [1]; kidney, 2 μmol/Kg s.c. soon after birth, day 5",0.94 nanamoles heme oxygenase per m
same,heme oxygenase activity,"heme oxygenase [1]; kidney, 2 μmol/Kg s.c. soon after birth, day 7",1.17 nanamoles heme oxygenase per m
same,heme oxygenase activity,"heme oxygenase [1]; kidney, 2 μmol/Kg s.c. soon after birth, day 10",1.67 nanamoles heme oxygenase per m
same,heme oxygenase activity,"heme oxygenase [1]; kidney, 2 μmol/Kg s.c. soon after birth, day 14",0.74 nanamoles heme oxygenase per m
same,heme oxygenase activity,"heme oxygenase [1]; kidney, 2 μmol/Kg s.c. soon after birth, day 21",0.61 nanamoles heme oxygenase per m
same,heme oxygenase activity,"heme oxygenase [1]; kidney, 2 μmol/Kg s.c. soon after birth, day 35",0.58 nanamoles heme oxygenase per m
same,heme oxygenase activity,"heme oxygenase [1]; kidney, 10 μmol/Kg s.c. soon after birth, day 2",0 nanamoles heme oxygenase per m
same,heme oxygenase activity,"heme oxygenase [1]; kidney, 10 μmol/Kg s.c. soon after birth, day 3",0.42 nanamoles heme oxygenase per m
same,heme oxygenase activity,"heme oxygenase [1]; kidney, 10 μmol/Kg s.c. soon after birth, day 5",0.59 nanamoles heme oxygenase per m
same,heme oxygenase activity,"heme oxygenase [1]; kidney, 10 μmol/Kg s.c. soon after birth, day 7",0.48 nanamoles heme oxygenase per m
same,heme oxygenase activity,"heme oxygenase [1]; kidney, 10 μmol/Kg s.c. soon after birth, day 10",0.34 nanamoles heme oxygenase per m
same,heme oxygenase activity,"heme oxygenase [1]; kidney, 10 μmol/Kg s.c. soon after birth, day 14",0.41 nanamoles heme oxygenase per m
same,heme oxygenase activity,"heme oxygenase [1]; kidney, 10 μmol/Kg s.c. soon after birth, day 21",0.16 nanamoles heme oxygenase per m
same,heme oxygenase activity,"heme oxygenase [1]; kidney, 10 μmol/Kg s.c. soon after birth, day 35",0.45 nanamoles heme oxygenase per m
same,heme oxygenase activity,"heme oxygenase [1]; liver, 2 μmol/Kg s.c. soon after birth, day 2",5.81 nanamoles heme oxygenase per m
same,heme oxygenase activity,"heme oxygenase [1]; liver, 2 μmol/Kg s.c. soon after birth, day 3",5.60 nanamoles heme oxygenase per m
same,heme oxygenase activity,"heme oxygenase [1]; liver, 2 μmol/Kg s.c. soon after birth, day 5",5.36 nanamoles heme oxygenase per m
same,heme oxygenase activity,"heme oxygenase [1]; liver, 2 μmol/Kg s.c. soon after birth, day 7",4.42 nanamoles heme oxygenase per m
same,heme oxygenase activity,"heme oxygenase [1]; liver, 2 μmol/Kg s.c. soon after birth, day 10",3.62 nanamoles heme oxygenase per m
same,heme oxygenase activity,"heme oxygenase [1]; liver, 2 μmol/Kg s.c. soon after birth, day 14",2.24 nanamoles heme oxygenase per m
same,heme oxygenase activity,"heme oxygenase [1]; liver, 2 μmol/Kg s.c. soon after birth, day 21",1.94 nanamoles heme oxygenase per m
same,heme oxygenase activity,"heme oxygenase [1]; liver, 2 μmol/Kg s.c. soon after birth, day 35",2.38 nanamoles heme oxygenase per m
same,heme oxygenase activity,"heme oxygenase [1]; liver, 10 μmol/Kg s.c. soon after birth, day 2",1.67 nanamoles heme oxygenase per m
same,heme oxygenase activity,"heme oxygenase [1]; liver, 10 μmol/Kg s.c. soon after birth, day 3",1.43 nanamoles heme oxygenase per m
same,heme oxygenase activity,"heme oxygenase [1]; liver, 10 μmol/Kg s.c. soon after birth, day 5",1.22 nanamoles heme oxygenase per m
same,heme oxygenase activity,"heme oxygenase [1]; liver, 10 μmol/Kg s.c. soon after birth, day 7",0.85 nanamoles heme oxygenase per m
same,heme oxygenase activity,"heme oxygenase [1]; liver, 10 μmol/Kg s.c. soon after birth, day 10",0.85 nanamoles heme oxygenase per m
same,heme oxygenase activity,"heme oxygenase [1]; liver, 10 μmol/Kg s.c. soon after birth, day 14",0.78 nanamoles heme oxygenase per m
same,heme oxygenase activity,"heme oxygenase [1]; liver, 10 μmol/Kg s.c. soon after birth, day 21",0.56 nanamoles heme oxygenase per m
same,heme oxygenase activity,"heme oxygenase [1]; liver, 10 μmol/Kg s.c. soon after birth, day 35",1.23 nanamoles heme oxygenase per m
same,heme oxygenase activity,"heme oxygenase [1]; spleen, 2 μmol/Kg s.c. soon after birth, day 2",7.33 nanamoles heme oxygenase per m
same,heme oxygenase activity,"heme oxygenase [1]; spleen, 2 μmol/Kg s.c. soon after birth, day 3",11.13 nanamoles heme oxygenase per m
same,heme oxygenase activity,"heme oxygenase [1]; spleen, 2 μmol/Kg s.c. soon after birth, day 5",15.13 nanamoles heme oxygenase per m
same,heme oxygenase activity,"heme oxygenase [1]; spleen, 2 μmol/Kg s.c. soon after birth, day 7",11.18 nanamoles heme oxygenase per m
same,heme oxygenase activity,"heme oxygenase [1]; spleen, 2 μmol/Kg s.c. soon after birth, day 10",13.87 nanamoles heme oxygenase per m
same,heme oxygenase activity,"heme oxygenase [1]; spleen, 2 μmol/Kg s.c. soon after birth, day 14",16.62 nanamoles heme oxygenase per m
same,heme oxygenase activity,"heme oxygenase [1]; spleen, 2 μmol/Kg s.c. soon after birth, day 21",10.28 nanamoles heme oxygenase per m
same,heme oxygenase activity,"heme oxygenase [1]; spleen, 2 μmol/Kg s.c. soon after birth, day 35",15.55 nanamoles heme oxygenase per m
same,heme oxygenase activity,"heme oxygenase [1]; spleen, 10 μmol/Kg s.c. soon after birth, day 2",3.97 nanamoles heme oxygenase per m
same,heme oxygenase activity,"heme oxygenase [1]; spleen, 10 μmol/Kg s.c. soon after birth, day 3",4.62 nanamoles heme oxygenase per m
same,heme oxygenase activity,"heme oxygenase [1]; spleen, 10 μmol/Kg s.c. soon after birth, day 5",2.76 nanamoles heme oxygenase per m
same,heme oxygenase activity,"heme oxygenase [1]; spleen, 10 μmol/Kg s.c. soon after birth, day 7",6.19 nanamoles heme oxygenase per m
same,heme oxygenase activity,"heme oxygenase [1]; spleen, 10 μmol/Kg s.c. soon after birth, day 10",9.53 nanamoles heme oxygenase per m
same,heme oxygenase activity,"heme oxygenase [1]; spleen, 10 μmol/Kg s.c. soon after birth, day 14",10.34 nanamoles heme oxygenase per m
same,heme oxygenase activity,"heme oxygenase [1]; spleen, 10 μmol/Kg s.c. soon after birth, day 21",8.06 nanamoles heme oxygenase per m
same,heme oxygenase activity,"heme oxygenase [1]; spleen, 10 μmol/Kg s.c. soon after birth, day 35",13.72 nanamoles heme oxygenase per m
same,Serum Bilirubin,"serum bilirubin [2]; 2 μmol/Kg s.c. soon after birth, day 2",0.39 milligrams per deciliter
same,Serum Bilirubin,"serum bilirubin [2]; 2 μmol/Kg s.c. soon after birth, day 3",0.33 milligrams per deciliter
same,Serum Bilirubin,"serum bilirubin [2]; 2 μmol/Kg s.c. soon after birth, day 5",0.28 milligrams per deciliter
same,Serum Bilirubin,"serum bilirubin [2]; 2 μmol/Kg s.c. soon after birth, day 7",0.32 milligrams per deciliter
same,Serum Bilirubin,"serum bilirubin [2]; 2 μmol/Kg s.c. soon after birth, day 10",0.33 milligrams per deciliter
same,Serum Bilirubin,"serum bilirubin [2]; 2 μmol/Kg s.c. soon after birth, day 14",0.40 milligrams per deciliter
same,Serum Bilirubin,"serum bilirubin [2]; 10 μmol/Kg s.c. soon after birth, day 2",0.43 milligrams per deciliter
same,Serum Bilirubin,"serum bilirubin [2]; 10 μmol/Kg s.c. soon after birth, day 3",0.33 milligrams per deciliter
same,Serum Bilirubin,"serum bilirubin [2]; 10 μmol/Kg s.c. soon after birth, day 5",0.24 milligrams per deciliter
same,Serum Bilirubin,"serum bilirubin [2]; 10 μmol/Kg s.c. soon after birth, day 7",0.30 milligrams per deciliter
same,Serum Bilirubin,"serum bilirubin [2]; 10 μmol/Kg s.c. soon after birth, day 10",0.33 milligrams per deciliter
same,Serum Bilirubin,"serum bilirubin [2]; 10 μmol/Kg s.c. soon after birth, day 14",0.28 milligrams per deciliter
"C=Cc1c2[n-]c(c1C)/C=c1\[n-]/c(c(C)c1C=C)=C\c1[n-]c(c(CCC(=O)O)c1C)C=c1[n-]/c(c(C)c1CCC(=O)O)=C\2.[Sn+4] [Sn-protoporphyrin, tin protoporphyrin IX]",activity compared with Cr-protoporphyrin,heme oxygenase [3]; decreasing rate of heme metabolism,more active
same,effect on normal postnatal increase in hepatic heme oxygenase activity,"heme oxygenase [3]; neonatal rats, about 100 μmol/Kg s.c. at birth and 12, 24, 48, 72 hours, six week study",completely prevented the normal marked increase in hepatic heme oxygenase activity after birth
same,day at which hepatic heme oxygenase activity attained normal control levels,heme oxygenase [3]; [6],~42 days
same,time hepatic heme oxygenase activity remained well below control levels,heme oxygenase [3]; [6],about three
same,hepatic heme oxygenase activity relative to controls,"heme oxygenase [3]; neonatal rats, about 100 μmol/Kg s.c. per injection, 1 day",less than half the levels of the controls
same,day until which low bilirubin concentration continued,serum bilirubin [4],fourth
same,effect on serum bilirubin levels,serum bilirubin [4]; 42 day study,immediate and significant lowering of serum bilirubin levels
same,effect on bilirubin production and heme oxygenase activity,heme oxygenase [5],extremely effective
same,"heme oxygenase activity (bilirubin produced), LIVER","heme oxygenase [5]; sacrificed sixteen hours after treatment, separate livers (Experiment 1-3 = individual rats)",0.95 nanamoles bilirubin formed per and 1.53 nanamoles bilirubin formed per
same,"heme oxygenase activity (bilirubin produced), KIDNEY (COMBINED)","heme oxygenase [5]; sacrificed sixteen hours after treatment, three combined kidneys",0.055 nanamoles bilirubin formed per

# — US4684637A, “Method of decreasing rate of heme metabolism” (The Rockefeller University, priority 1985, dated 1987)
